In PubChem BioAssay (NCI):
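Compound exposure: 48 hours, 5 concentrations, 96-well plates. The concentration for 50% growth inhibition is given as GI50. TGI denotes the concentration required for complete inhibition of growth.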

How the values were obtained:
Assay in all cases: DTP human tumour cell line panel, 48 h
[1] = tested on: SK-OV-3 ovarian
[2] = tested on: IGROV1 ovarian
[3] = tested on: MOLT-4 leukemia
[4] = tested on: A549 NSCLC
[5] = tested on: SK-MEL-5 melanoma
[6] = tested on: HCC-2998 colon
[7] = tested on: 786-0 renal
[8] = tested on: SNB-75 CNS
[9] = tested on: OVCAR-5 ovarian
[10] = tested on: PC-3 prostate
[11] = tested on: MDA-MB-435
[12] = tested on: SR leukemia
[13] = tested on: OVCAR-3 ovarian
[14] = tested on: NCI-H522 lung
[15] = tested on: SK-MEL-28 melanoma
[16] = tested on: UACC-62 melanoma
[17] = tested on: MCF7 breast
[18] = tested on: NCI-H226 lung
[19] = tested on: ACHN renal
[20] = tested on: HS 578T breast
[21] = tested on: HCT-116 colon
[22] = tested on: SF-539 CNS
[23] = tested on: COLO 205 colon
[24] = tested on: NCI-H460 lung
[25] = tested on: OVCAR-4 ovarian
[26] = tested on: SW-620 colon
[27] = tested on: SF-268 CNS
[28] = tested on: HL-60(TB) leukemia
[29] = tested on: CCRF-CEM leukemia
[30] = tested on: SK-MEL-2 melanoma
[31] = tested on: CAKI-1 renal
[32] = tested on: SF-295 CNS
[33] = tested on: UO-31 renal
[34] = tested on: T-47D breast
[35] = tested on: RXF 393 renal
[36] = tested on: HOP-62 NSCLC
[37] = tested on: A498 renal
[38] = tested on: SN12C renal
[39] = tested on: K-562 leukemia
[40] = tested on: NCI-H23 lung
[41] = tested on: HOP-92 NSCLC
[42] = tested on: BT-549 breast
[43] = tested on: RPMI-8226 leukemia
[44] = tested on: SNB-19 CNS
[45] = tested on: TK-10 renal
[46] = tested on: NCI/ADR-RES ovarian
[47] = tested on: M14 melanoma
[48] = tested on: UACC-257 melanoma
[49] = tested on: EKVX NSCLC
[50] = tested on: OVCAR-8 ovarian
[51] = tested on: LOX IMVI melanoma
[52] = tested on: DU-145 prostate
[53] = tested on: MDA-MB-231 breast
[54] = tested on: KM12 colon

`Nc1nc(/C=C\c2ccc([N+](=O)[O-])s2)nc(N2CCOCC2)n1` was tested, and the GI50 [1] was 16.3 µM, the TGI [1] was 43 µM and the GI50 [2] was 4.93 µM. It also gave a TGI [2] of 19.8 µM, a GI50 [3] of 11.1 µM and a TGI [3] of 42.1 µM. The GI50 [4] was 16.1 µM, the TGI [4] was 32.6 µM and the GI50 [5] was 5.84 µM. For the same compound, the TGI [5] was 19.1 µM, the GI50 [6] was 5.18 µM and the TGI [6] was 16.7 µM. For the same compound, the GI50 [7] was 15.8 µM, the TGI [7] was 30.1 µM and the GI50 [8] was 13.8 µM. For the same compound, the TGI [8] was 34.2 µM, the GI50 [9] was 22.2 µM and the TGI [9] was 37.2 µM. It also gave a GI50 [10] of 11.5 µM, a TGI [10] of 28.1 µM and a GI50 [11] of 8.19 µM. For the same compound, the TGI [11] was 22.8 µM, the GI50 [12] was 5.14 µM and the TGI [12] was 20.3 µM. For the same compound, the GI50 [13] was 15.2 µM, the TGI [13] was 37.5 µM and the GI50 [14] was 4.57 µM. It also gave a TGI [14] of 17.1 µM, a GI50 [15] of 17.9 µM and a TGI [15] of 38.2 µM. For the same compound, the GI50 [16] was 7.08 µM, the TGI [16] was 19.7 µM and the GI50 [17] was 5.77 µM. The TGI [17] was 19.5 µM, the GI50 [18] was 16 µM and the TGI [18] was 46.2 µM. It also gave a GI50 [19] of 5.06 µM, a TGI [19] of 17.7 µM and a GI50 [20] of 25.6 µM. For the same compound, the TGI [20] was greater than 100 µM, the GI50 [21] was 2.98 µM and the TGI [21] was 10.9 µM. For the same compound, the GI50 [22] was 19.7 µM, the TGI [22] was 46.3 µM and the GI50 [23] was 2.08 µM. For the same compound, the TGI [23] was 5.09 µM, the GI50 [24] was 13.7 µM and the TGI [24] was 26.6 µM. It also gave a GI50 [25] of 2.65 µM, a TGI [25] of 15.3 µM and a GI50 [26] of 13.9 µM. It also gave a TGI [26] greater than 100 µM, a GI50 [27] of 8.24 µM and a TGI [27] of 22 µM. For the same compound, the GI50 [28] was 6.45 µM, the TGI [28] was 26.2 µM and the GI50 [29] was 3.33 µM. The TGI [29] was 16.9 µM, the GI50 [30] was 17.4 µM and the TGI [30] was 44.7 µM. It also gave a GI50 [31] of 19.7 µM, a TGI [31] of 39.6 µM and a GI50 [32] of 36.4 µM. The TGI [32] was greater than 100 µM, the GI50 [33] was 14.9 µM and the TGI [33] was 30.1 µM. For the same compound, the GI50 [34] was 8.98 µM, the TGI [34] was 28.1 µM and the GI50 [35] was 11.1 µM. For the same compound, the TGI [35] was 26.2 µM, the GI50 [36] was 17.8 µM and the TGI [36] was 32.9 µM. The GI50 [37] was 9 µM, the TGI [37] was 22.7 µM and the GI50 [38] was 13 µM. The TGI [38] was 26.4 µM, the GI50 [39] was 7.71 µM and the TGI [39] was 24.7 µM. For the same compound, the GI50 [40] was 10.2 µM, the TGI [40] was 22.7 µM and the GI50 [41] was 13.2 µM. It also gave a TGI [41] of 28.1 µM, a GI50 [42] of 9.29 µM and a TGI [42] of 26.9 µM. The GI50 [43] was 3.45 µM, the TGI [43] was 17.6 µM and the GI50 [44] was 23.3 µM. For the same compound, the TGI [44] was 69.5 µM, the GI50 [45] was 22 µM and the TGI [45] was 46.9 µM. For the same compound, the GI50 [46] was 12.7 µM, the TGI [46] was 33.3 µM and the GI50 [47] was 10.5 µM. The TGI [47] was 24.7 µM, the GI50 [48] was 10.7 µM and the TGI [48] was 23.1 µM. It also gave a GI50 [49] of 17.8 µM, a TGI [49] of 56.8 µM and a GI50 [50] of 13.7 µM. The TGI [50] was greater than 100 µM, the GI50 [51] was 2.12 µM and the TGI [51] was 9.52 µM. For the same compound, the GI50 [52] was 11 µM, the TGI [52] was 26.7 µM and the GI50 [53] was 5.55 µM. For the same compound, the TGI [53] was 19.1 µM, the GI50 [54] was 3.5 µM and the TGI [54] was 16.5 µM.
